From US6683107B2, “Furans, benzofurans, and thiophenes useful in the treatment of insulin resistance and hyperglycemia” (Wyeth, priority 1998, dated 2004)
Structures can show the parent of a compound that is named as a salt.

Experiments:
[1] = target: T1, human recombinant PTP1B (hPTP1B) (Homo sapiens, UniProt P18031); experiment: Inhibition of tri-phosphorylated insulin receptor dodecaphosphopeptide dephosphorylation by hPTP1B (malachite green phosphate detection); type: biochemical; details: for IC50: recombinant PTP1B, insulin receptor 1142-1153 triphosphopeptide substrate, 37° C., 30 min, pH 7.4
T1 construct: made in house
T1 sequence (P18031 1-435): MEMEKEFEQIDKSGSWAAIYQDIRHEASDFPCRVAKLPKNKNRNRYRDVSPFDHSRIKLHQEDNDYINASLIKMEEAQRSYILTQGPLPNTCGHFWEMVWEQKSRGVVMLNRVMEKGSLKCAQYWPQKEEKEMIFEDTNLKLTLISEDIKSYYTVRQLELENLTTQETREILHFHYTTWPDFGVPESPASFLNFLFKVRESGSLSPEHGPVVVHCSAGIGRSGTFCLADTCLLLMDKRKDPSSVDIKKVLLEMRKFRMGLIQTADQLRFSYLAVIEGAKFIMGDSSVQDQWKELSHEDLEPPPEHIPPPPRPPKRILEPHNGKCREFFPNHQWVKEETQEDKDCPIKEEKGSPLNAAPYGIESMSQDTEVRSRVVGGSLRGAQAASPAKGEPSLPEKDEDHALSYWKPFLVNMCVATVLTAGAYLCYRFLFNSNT

melting point [°C] | IC50 [1] [nM] | inhibition at 1 µM ([1]; compound at 1.0 μM, percent of phosphatase control) [%] | Compound | % inhibition @ 0.5 μM [1] [% inhibition @ 0.5 μM]
173 | 251 |  | CCc1oc2ccccc2c1C(=O)c1cc(Br)c(OS(=O)(=O)c2ccc(C(=O)O)c(O)c2)c(Br)c1 [Example 1, 4-[2,6-Dibromo-4-(2-ethyl-benzofuran-3-carbonyl)-phenoxysulfonyl]-2-hydroxy-benzoic acid] | 
166 to 167 | 421 |  | CCc1oc2ccccc2c1C(=O)c1cc(C)c(OS(=O)(=O)c2ccc(C(=O)O)c(O)c2)c(C)c1 [Example 3, 4-[4-(2-Ethyl-benzofuran-3-carbonyl)-2,6-dimethyl-phenoxysulfonyl]-2-hydroxy-benzoic acid] | 
 | 256 |  | CCc1oc2ccccc2c1C(=O)c1cc(-c2ccccc2)c(OS(=O)(=O)c2ccc(C(=O)O)c(O)c2)c(-c2ccccc2)c1 [Example 6, 4-[5′-(2-Ethyl-benzofuran-3-carbonyl)-[1,1′: 3′,1″]terphenyl-2′-yloxysulfonyl-]2-hydroxy-benzoic acid sodium salt] | 
187 to 190 | 180 |  | Cc1cc(C(=O)c2c(Cc3ccccc3)oc(C)c2C)cc(-c2ccccc2)c1OS(=O)(=O)c1ccc(C(=O)[O-])c(O)c1.[Na+] [Example 7, 4-[5-(2-Benzyl4,5-dimethyl-furan-3-carbonyl)-3-methyl-biphenyl-2-yloxysulfonyl]-2-hydroxy-benzoic acid sodium salt] | 
90 to 95 | 83 |  | Cc1oc(Cc2ccccc2Br)c(C(=O)c2cc(C(C)C)c(OS(=O)(=O)c3ccc(C(=O)O)c(O)c3)c(C(C)C)c2)c1C [Example 9, 4-{4-[2-(2-Bromo-benzyl)-4.5-dimethyl-furan-3-carbonyl]-2.6-diisopropyl-phenoxysulfonyl}-2-hydroxy-benzoic acid] | 
57 to 59 | 183 |  | O=C(O)c1ccc(S(=O)(=O)Oc2ccc(CCc3c(Cc4ccccc4)sc4ccccc34)cc2)cc1O [Example 12, 4-{4-[2-(2-Benzyl-benzo[b]thiophen-3-yl)thyl]-phenoxysulfonyl}-2-hydroxy-benzoic acid] | 
80 to 85 | 643 |  | Cc1oc(Cc2ccccc2)c(C(=O)c2ccc(OS(=O)(=O)c3ccc(C(=O)O)c(O)c3)c(C3CCCC3)c2)c1C [Example 17, 4-[4-(2-Benzyl-4,5-dimethyl-furan-3-carbonyl)-2-cyclopentyl-phenoxysulfonyl]-2-hydroxy-benzoic acid] | 
70 to 77 | 404 |  | Cc1sc(Cc2ccccc2)c(C(=O)c2ccc(OS(=O)(=O)c3ccc(C(=O)O)c(O)c3)c(C3CCCC3)c2)c1C [Example 18, 4-[4-(2-Benzyl-4,5-dimethyl-thiophene-3-carbonyl)-2-cyclopentyl-phenoxysulfonyll-]2-hydroxy-benzoic acid] | 
143 to 147 | 633 |  | CCc1cc(C(=O)c2c(Cc3ccccc3)oc(C)c2C)cc(CC)c1OS(=O)(=O)c1ccc(C(=O)O)c(O)c1 [Example 19, 4-[4-(2-Benzyl-4,5-dimethyl-furan-3-carbonyl)-2.6-diethyl-phenoxysulfonyl]-2-hydroxy-benzoic acid] | 

The next lines start with the compound.

Compound | melting point [°C] | IC50 [1] [nM] | inhibition at 1 µM ([1]; compound at 1.0 μM, percent of phosphatase control) [%] | % inhibition @ 0.5 μM [1] [% inhibition @ 0.5 μM]
4-[4-(2-Butyl-benzofuran-3-carbonyl)-phenylsulfonyl]-2-hydroxy-benzoic acid [Example 16] |  |  |  | 22.81
CCc1oc2ccccc2c1C(=O)c1cc(-c2ccccc2)c(OS(=O)(=O)c2ccc(C(=O)O)c(O)c2)c(-c2ccccc2)c1 (as salt: sodium) [Example 6, 4-[5′-(2-Ethyl-benzofuran-3-carbonyl)-[1,1′: 3′,1″]terphenyl-2′-yloxysulfonyl-]2-hydroxy-benzoic acid sodium salt] | 211 to 212 |  |  | 
CCCCc1oc2ccccc2c1C(=O)c1cc(-c2ccccc2)c(OS(=O)(=O)c2ccc(C(=O)O)c(O)c2)c(-c2ccccc2)c1 [Example 2, 4-[5′-(2-Butyl-benzofuran-3-carbonyl)-[1,1′; 3′1″]terphenyl-2′-yloxysulfonyl]-2-hydroxy-benzoic acid] | 190 to 197 | 130 |  | 
CCc1oc2ccccc2c1C(=O)c1cc(C(C)C)c(OS(=O)(=O)c2ccc(C(=O)O)c(O)c2)c(C(C)C)c1 [Example 4, 4-[4-(2-Ethyl-benzofuran-3-carbonyl)-2,6-diisopropyl-phenoxysulfonyl]-2-hydroxy-benzoic acid] | 200 to 201 | 559 |  | 
Cc1oc(Cc2ccccc2)c(C(=O)c2cc(C(C)C)c(OS(=O)(=O)c3ccc(C(=O)O)c(O)c3)c(C(C)C)c2)c1C [Example 5, 4-[4-(2-Benzyl-4,5-dimethyl-furan-3-carbonyl)-2,6-diisopropyl-phenoxysulfonyl]-2-hydroxy-benzoic acid] | 142 to 143 | 83 |  | 
Cc1oc(Cc2ccc3ccccc3c2)c(C(=O)c2cc(C(C)C)c(OS(=O)(=O)c3ccc(C(=O)O)c(O)c3)c(C(C)C)c2)c1C [Example 8, 4-[4-(4,5-Dimethyl-2-naphthalen-2-ylmethyl-furan-3-carbonyl)-2,6-diisopropyl-phenoxysulfonyl]-2-hydroxy-benzoic acid] | 130 to 135 | 75 |  | 
Cc1oc(Cc2cccc(Br)c2)c(C(=O)c2cc(C(C)C)c(OS(=O)(=O)c3ccc(C(=O)O)c(O)c3)c(C(C)C)c2)c1C [Example 10, 4-{4-[2-(3-Bromo-benzyl)-4.5-dimethyl-furan-3-carbonyl]-2.6-diisopropylphenoxysulfonyl}-2-hydroxy-benzoic acid] | 148 | 226 |  | 
Cc1oc(Cc2ccc(Br)cc2)c(C(=O)c2cc(C(C)C)c(OS(=O)(=O)c3ccc(C(=O)O)c(O)c3)c(C(C)C)c2)c1C [Example 11, 4-{4-[2-(4-Bromo-benzyl)4,5-dimethyl-fuiran-3-carbonyl]-2,6-diisopropyl-phenoxysulfonyl}-2-hydroxy-benzoic acid] | 165 to 168 | 99 |  | 
Cc1oc(Cc2ccc(Br)cc2)c(C(=O)c2ccc(OS(=O)(=O)c3ccc(C(=O)O)c(O)c3)c(C3CCCC3)c2)c1C [Example 13, 4-{4-[2-(4-Bromo-benzyl)4,5-dimethyl-furan-3-carbonyl]-2-cyclopentyl-phenoxysulfonyl}-2-hydroxy-benzoic acid] | 188 to 192 | 267 |  | 
CCCCc1oc2ccccc2c1CCc1ccc(OS(=O)(=O)c2ccc(C(=O)O)c(O)c2)cc1 [Example 14, 4-{4-[2-(2-Butyl-benzofuran-3-yl)-ethyl]-phenoxysulfonyl}-2-hydroxy-benzoic acid] | 93 to 95 | 60 |  | 
CCCCc1oc2ccccc2c1CNc1ccc(OS(=O)(=O)c2ccc(C(=O)O)c(O)c2)cc1 [Example 15, 4-{4-[(2-Butyl-benzofuran-3-ylmethyl)-amino]-phenoxysulfonyl}-2-hydroxy-benzoic acid] | 75 to 77 |  | 28.8 | 
Cc1sc(Cc2ccc(Br)cc2)c(C(=O)c2ccc(OS(=O)(=O)c3ccc(C(=O)O)c(O)c3)c(C3CCCC3)c2)c1C [Example 20, 4-{4-[2-(4-Bromo-benzyl)4.5-dimethyl-thiophene-3-carbonyl]-2-cyclopentylphenoxysulfonyl}-2-hydroxy-benzoic acid] | 165 to 170 | 148 |  | 
Ammonium molybdate tetrahydrate [reference compound] |  | 8700 |  | 
